The text below walks through data of paper PMC11111404, “Discovery of potent small-molecule inhibitors of lipoprotein(a) formation” (Nature, 2024).

By Kd is commonly meant the equilibrium constant for the complex coming apart. Lower therefore signals a tighter complex.

One test deals with T1, apo(a) KIV5–8 (Homo sapiens, UniProt P08519).
T1 construct: made in house
T1 sequence (P08519 1043-1470 limits assumed): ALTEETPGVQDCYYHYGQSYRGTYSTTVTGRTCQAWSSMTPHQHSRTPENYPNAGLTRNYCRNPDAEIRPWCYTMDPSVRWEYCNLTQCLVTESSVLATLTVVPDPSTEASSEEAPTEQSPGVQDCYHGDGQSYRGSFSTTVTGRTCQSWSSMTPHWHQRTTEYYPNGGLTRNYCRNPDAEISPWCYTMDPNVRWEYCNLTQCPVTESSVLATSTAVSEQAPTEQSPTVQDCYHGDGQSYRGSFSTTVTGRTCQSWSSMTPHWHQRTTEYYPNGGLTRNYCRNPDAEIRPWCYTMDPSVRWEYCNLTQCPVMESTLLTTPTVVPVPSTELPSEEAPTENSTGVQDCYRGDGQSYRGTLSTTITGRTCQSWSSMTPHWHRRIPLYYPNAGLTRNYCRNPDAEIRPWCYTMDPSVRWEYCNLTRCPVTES
The experiment in a line: ITC binding to apo(a) KIV5–8. As to the method:
The nucleotide sequence encoding the human LPA gene (NP_005568.2) was inserted into a mammalian expression vector containing a cytomegalovirus promoter. Protein expression was performed by transient transfection of human embryonic kidney 293 (HEK293) cells cultured in serum-free medium. The culture medium was collected five days after transfection and human apo(a) protein was purified using L-lysine affinity chromatography. Nucleotide sequences encoding various KIV domains of human apo(a) and human and rat plasminogen were inserted into a pET21a Escherichia coli expression vector. Bacterial BL21(DE3) was used as the expression host, and the induction of protein expression was performed in 2× TY medium with 1 mM isopropyl β-D-1-thiogalactopyranoside at 37 °C for 5 h. Cells were collected and stored at –80 °C for subsequent protein purification and refolding. […] All protein concentrations were determined by A280.
Experiments were performed on a MicroCal Auto-iTC200 titration calorimeter (Malvern Panalytical), with a cell volume of 200 μl and a 40-μl microsyringe. […] The microsyringe was loaded with a solution of the respective compounds, with the concentration measured by quantitative nuclear magnetic resonance, and was inserted into the calorimetric cell prefilled with the respective recombinant proteins of known concentration in ITC buffer. […]

The target in test [1] is T2, K-2 to K-3 domains of rat plasminogen (Rattus norvegicus, UniProt Q01177).
T2 construct: made in house
T2 sequence (Q01177 184-352 limits assumed): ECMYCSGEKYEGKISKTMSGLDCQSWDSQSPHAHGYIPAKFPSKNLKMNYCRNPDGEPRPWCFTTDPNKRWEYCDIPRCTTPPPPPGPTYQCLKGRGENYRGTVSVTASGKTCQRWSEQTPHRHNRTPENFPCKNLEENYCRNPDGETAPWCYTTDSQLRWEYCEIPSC
In words: ITC binding to rat plasminogen K-2 to K-3. As to the method: The nucleotide sequence encoding the human LPA gene (NP_005568.2) was inserted into a mammalian expression vector containing a cytomegalovirus promoter. Protein expression was performed by transient transfection of human embryonic kidney 293 (HEK293) cells cultured in serum-free medium. The culture medium was collected five days after transfection and human apo(a) protein was purified using L-lysine affinity chromatography. Nucleotide sequences encoding various KIV domains of human apo(a) and human and rat plasminogen were inserted into a pET21a Escherichia coli expression vector. […] All protein concentrations were determined by A280. […] The microsyringe was loaded with a solution of the respective compounds, with the concentration measured by quantitative nuclear magnetic resonance, and was inserted into the calorimetric cell prefilled with the respective recombinant proteins of known concentration in ITC buffer. […] Thermodynamic parameters were calculated using the basic equation of thermodynamics (ΔG = ΔH - TΔS = -RTlnKd), where ΔG, ΔH and ΔS are the changes in free energy, enthalpy and entropy of binding, respectively; Kd is the equilibrium dissociation constant; T is the absolute temperature ([…]); and R is the gas constant (1.987 cal mol^-1 K^-^1). […]

Bounds are passed on as bounds.

For `Cl.Cl.O=C(Nc1cccc(C[C@H](C(=O)O)[C@H]2CCNC2)c1)Nc1cccc(C[C@H](C(=O)O)[C@H]2CCNC2)c1` [LSN3441732], the Kd on apo(a) KIV5–8 is < 15 nM. Besides, in test [1], the dissociation constant Kd is < 10 nM and the “fold higher affinity for rat than human plasminogen K-2 to K-3” value is on record as “more than 100 fold”.
